Columns and labels:
MCP-1 = test: cytokine inhibition in LPS-activated macrophages, ELISA (MCP-1); assay type: cell-based; conditions: 10 nM
Protocol: (§1) In cell culture studies, macrophages were activated to secrete cytokines such as MMP-9 and MCP-1 by treating the cells to E Coli lippopolysaccharide (LPS). Inhibition of these cytokines upon treatment of the activated macrophages with Myolimus and rapamycin with 10 nM concentration was tested using ELISA assay.

MMP-9 = test: cytokine inhibition in LPS-activated macrophages, ELISA (MMP-9); assay type: cell-based; conditions: 10 nM
Protocol: as §1

human smooth muscle cell = test: in vitro human smooth muscle cell culture testing, incorporated thymidine; assay type: cell-based; conditions: exposure for 8 hours, concentrations 0.0001-1 μM
Protocol: The amounts of incorporated thymidine for samples of Myolimus of varying concentrations (0.0001, 0.001, 0.01, 0.1, and 1 μM) and of rapamycin of varying concentrations (0.0001, 0.001, 0.01, 0.1, and 1 μM) were measured after exposure for 8 hours (as shown in FIG. 1). The IC50 of both Myolimus and Rapamycin was 0.1 nM indicating potent anti-proliferative properties.

[1] = in vivo; cited from earlier work
[2] = cited from earlier work

CO[C@H]1C[C@@H]2CC[C@@H](C)[C@@](O)(O2)C(=O)C(=O)N2CCCC[C@H]2C(=O)O[C@H]([C@H](C)C[C@@H]2CC[C@@H](O)[C@H](OC)C2)CC[C@H](C)/C=C(\C)[C@@H](O)[C@@H](OC)C(=O)[C@H](C)C[C@H](C)/C=C/C=C/C=C/1C [Myolimus, 32-deoxorapamycin]
production of MCP-1 (MCP-1): reduced the production
production of MCP-1 (MCP-1; listed as myolimus): inhibiting the production
production of MMP-9 (MMP-9): reduced the production
production of MMP-9 (MMP-9; listed as myolimus): inhibiting production
IC50 (human smooth muscle cell): 0.1 nM

CO[C@H]1C[C@@H]2CC[C@@H](C)[C@@](O)(O2)C(=O)C(=O)N2CCCC[C@H]2C(=O)O[C@H]([C@H](C)C[C@@H]2CC[C@@H](O)[C@H](OC)C2)CC(=O)[C@H](C)/C=C(\C)[C@@H](O)[C@@H](OC)C(=O)[C@H](C)C[C@H](C)/C=C/C=C/C=C/1C [Rapamycin]
production of MCP-1 (MCP-1): did not have any impact
production of MMP-9 (MMP-9): increased the production
IC50 (human smooth muscle cell): 0.1 nM
bioavailability [1]: very low and variable
solubility in water [2]: only very slightly soluble
